Results published in paper PMC7665585, “Antidepressive effect of an inward rectifier K^+ channel blocker peptide, tertiapin-RQ” (PLoS ONE, 2020).
Bridge positions count the residues as written; N and C are the ends. Ends that are not written are not given here. Peptide text beside a SMILES is read from it.

Target: T1, rat ROMK (Rattus norvegicus, UniProt P35560)
T1 construct: expressed in transfected cells; host or cells: 293T cell line 208-4 (lentiviral transduction, GFP coexpressed)
T1 sequence (P35560 1-391): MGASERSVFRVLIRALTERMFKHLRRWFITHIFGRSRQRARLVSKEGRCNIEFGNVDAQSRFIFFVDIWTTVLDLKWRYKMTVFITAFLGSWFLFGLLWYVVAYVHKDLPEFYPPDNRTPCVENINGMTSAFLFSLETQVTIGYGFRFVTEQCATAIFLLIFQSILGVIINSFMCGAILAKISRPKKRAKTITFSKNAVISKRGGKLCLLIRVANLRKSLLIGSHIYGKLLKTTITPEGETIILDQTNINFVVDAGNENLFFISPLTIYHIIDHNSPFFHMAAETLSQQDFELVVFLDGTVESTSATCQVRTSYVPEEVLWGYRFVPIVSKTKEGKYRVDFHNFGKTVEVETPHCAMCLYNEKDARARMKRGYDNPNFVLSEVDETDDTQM
Experiment: Whole-cell patch-clamp of ROMK currents in 208–4 cells
Assay type: cell-based
Details: blockade at 1 μM estimated from fitted Hill curve (four parameters), whole-cell conductance, n = 3–6
Text: The cDNAs for rat ROMK and mouse GIRK1, 2, and 4 were generously donated by Drs Mikio Hayashi (Kansai Medical University) and David Weaver (Vanderbilt University). The ROMK channels were stably expressed by a cell line, 208–4, which was transduced with lentiviral vectors coexpressing the channel and green fluorescent protein (GFP) as described previously. The GIRK genes, cloned in a pCMV6 plasmid (Origene Technologies Inc, Rockville, MD), were transiently expressed in 293T cells with calcium phosphate transfection. GIRK channel currents were recorded 24 h after transfection.
Cells grown on small cover glasses (3 × 18 mm) were placed in a recording chamber. Whole-cell currents were recorded in Tyrode solution using an Axopatch 200B amplifier (Axon Instruments, Foster City, CA) at 25°C. Tyrode solution contained (in mM): NaCl 140, KCl 5.4, NaH2PO4 0.33, CaCl2 2, MgCl2 1, HEPES 5, and glucose 5.5 (pH 7.4 adjusted with NaOH). High K^+ Tyrode solution (KCL 50 mM, NaCl 95 mM, and others were the same as standard Tyrode solution) was used for the recording of GIRK channels. Patch pipettes pulled from borosilicate glass (Narishige, Tokyo, Japan) were filled with an internal solution containing (in mM): K-aspartate 66, KCl 71.5, KH2PO4 1, EGTA 5, HEPES 5, and MgATP 3 (pH 7.4 adjusted with KOH). Recordings were digitized at 10 kHz, and low-pass filtered at 2 kHz. ROMK, Kir2.1, and GIRK currents were evoked with step pulses of 400 msec from -150 mV to 10 mV in 10 mV increments from a holding potential of -70 mV. Whole-cell currents were recorded 60 sec after the peptide application and those from 100 to 300 msec of the step pulses were averaged. Liquid junction potential or capacitive transient was not corrected or compensated. Whole-cell conductance was calculated as the slope of the current-voltage (I-V) relationship from -140 mV to -100 mV and normalized to the initial value (0 μM TPN), in which BaCl2-resistant current was subtracted and indicted as a percentage.

TPN 13–20 [Peptide 16] was tested, and the “Activity (ROMK channel blocking activity, percentage of blockade at 1 μM)” value was “- (-, <20%)”.
In the case of TPN 11–18 [Peptide 14], the “Activity (ROMK channel blocking activity, percentage of blockade at 1 μM)” value is reported as “- (-, <20%)”.
TPN 14–21 [Peptide 17] was tested, and the “Activity (ROMK channel blocking activity, percentage of blockade at 1 μM)” value was “- (-, <20%)”.

Same assay, conditions: blockade at 1 μM estimated from fitted Hill curve (four parameters), whole-cell conductance, n = 3–6, read-out: Activity (ROMK channel blocking activity, percentage of blockade at 1 μM)

Compared with `CC[C@H](C)[C@@H]1NC(=O)[C@H](CCCNC(=N)N)NC(=O)[C@H](CCCNC(=N)N)NC(=O)[C@H](CC(N)=O)NC(=O)[C@@H]2CSSC[C@@H](C(=O)NCC(=O)N[C@@H](CCCCN)C(=O)N[C@@H](CCCCN)C(N)=O)NC(=O)[C@H](CCCCN)NC(=O)[C@H](CCCCN)NC(=O)[C@H](Cc3c[nH]c4ccccc34)NC(=O)[C@H](CSSC[C@H](NC(=O)[C@H](C)NC(=O)[C@H](C)N)C(=O)N[C@@H](CC(N)=O)C(=O)N2)NC(=O)[C@H](CCC(N)=O)NC(=O)[C@H](Cc2c[nH]cn2)NC(=O)[C@@H]2CCCN2C(=O)[C@H]([C@@H](C)CC)NC1=O` [Peptide 55, TPN-RQ(L2A)] (H-AACNCNRRIIPHQCWKKCGKK-NH2; disulfide 3-14, 5-18), `CC[C@H](C)[C@@H]1NC(=O)[C@H](CCCNC(=N)N)NC(=O)[C@H](CCCNC(=N)N)NC(=O)[C@H](CC(N)=O)NC(=O)[C@@H](N)CSSC[C@@H](C(=O)N[C@@H](Cc2c[nH]c3ccccc23)C(=O)N[C@@H](CCCCN)C(=O)N[C@@H](CCCCN)C(N)=O)NC(=O)[C@H](CCC(N)=O)NC(=O)[C@H](CCCCN)NC(=O)[C@@H]2CCCN2C(=O)[C@H]([C@@H](C)CC)NC1=O` [Peptide 38, TPN-RQ 5-17(H12K)] (H-CNRRIIPKQCWKK-NH2; disulfide 1-10) is lower in inhibition at 1 µM: 60 to 80% for the first, under 20% for the second.

First: CC[C@H](C)[C@@H]1NC(=O)[C@H](CCCNC(=N)N)NC(=O)[C@H](CCCNC(=N)N)NC(=O)[C@H](CC(N)=O)NC(=O)[C@@H]2CSSC[C@@H](C(=O)NCC(=O)N[C@@H](C)C(=O)N[C@@H](CCCCN)C(N)=O)NC(=O)[C@H](CCCCN)NC(=O)[C@H](CCCCN)NC(=O)[C@H](Cc3c[nH]c4ccccc34)NC(=O)[C@H](CSSC[C@H](NC(=O)[C@H](CC(C)C)NC(=O)[C@H](C)N)C(=O)N[C@@H](CC(N)=O)C(=O)N2)NC(=O)[C@H](CCC(N)=O)NC(=O)[C@H](Cc2c[nH]cn2)NC(=O)[C@@H]2CCCN2C(=O)[C@H]([C@@H](C)CC)NC1=O [Peptide 68, TPN-RQ(K20A)] (H-ALCNCNRRIIPHQCWKKCGAK-NH2; disulfide 3-14, 5-18)
Second: RRIIPAQK-NH2 [Peptide 28, TPN-RQ 7-13(H12A) + K]
The inhibition at 1 µM of the first is higher: 40 to 60% for the first, under 20% for the second.

`CC[C@H](C)[C@@H]1NC(=O)[C@H](CCCNC(=N)N)NC(=O)[C@H](CCCNC(=N)N)NC(=O)[C@H](CC(N)=O)NC(=O)[C@@H]2CSSC[C@@H](C(=O)NCC(=O)N[C@@H](CCCCN)C(=O)N[C@@H](C)C(N)=O)NC(=O)[C@H](CCCCN)NC(=O)[C@H](CCCCN)NC(=O)[C@H](Cc3c[nH]c4ccccc34)NC(=O)[C@H](CSSC[C@H](NC(=O)[C@H](CC(C)C)NC(=O)[C@H](C)N)C(=O)N[C@@H](CC(N)=O)C(=O)N2)NC(=O)[C@H](CCC(N)=O)NC(=O)[C@H](Cc2c[nH]cn2)NC(=O)[C@@H]2CCCN2C(=O)[C@H]([C@@H](C)CC)NC1=O` [Peptide 69, TPN-RQ(K21A)] (H-ALCNCNRRIIPHQCWKKCGKA-NH2; disulfide 3-14, 5-18) and `CC[C@H](C)[C@@H]1NC(=O)[C@H](CCCNC(=N)N)NC(=O)[C@H](CC(N)=O)NC(=O)[C@@H]2CSSC[C@@H](C(=O)NCC(=O)N[C@@H](CCCCN)C(=O)N[C@@H](CCCCN)C(N)=O)NC(=O)[C@H](CCCCN)NC(=O)[C@H](CCCCN)NC(=O)[C@H](Cc3c[nH]c4ccccc34)NC(=O)[C@H](CSSC[C@H](NC(=O)[C@H](CC(C)C)NC(=O)[C@H](C)N)C(=O)N[C@@H](CC(N)=O)C(=O)N2)NC(=O)[C@H](CCC(N)=O)NC(=O)[C@H](Cc2c[nH]cn2)NC(=O)[C@@H]2CCCN2C(=O)[C@H]([C@@H](C)CC)NC1=O` [Peptide 51, TPN-RQ(Δ8R)] (H-ALCNCNRIIPHQCWKKCGKK-NH2; disulfide 3-13, 5-17) fall in the same range of inhibition at 1 µM: 40 to 60% for the first, 40 to 60% for the second.

Compared with RIIIPHQC-NH2 [Peptide 18, TPN-Q 7–14], `CC[C@H](C)[C@@H]1NC(=O)[C@H](CCCNC(=N)N)NC(=O)[C@H](CCCNC(=N)N)NC(=O)[C@H](CC(N)=O)NC(=O)[C@@H]2CSSC[C@@H](C(=O)NCC(=O)N[C@@H](CCCCN)C(=O)N[C@@H](CCCCN)C(N)=O)NC(=O)[C@H](C)NC(=O)[C@H](C)NC(=O)[C@H](Cc3c[nH]c4ccccc34)NC(=O)[C@H](CSSC[C@H](NC(=O)[C@H](CC(C)C)NC(=O)[C@H](C)N)C(=O)N[C@@H](CC(N)=O)C(=O)N2)NC(=O)[C@H](CCC(N)=O)NC(=O)[C@H](Cc2c[nH]cn2)NC(=O)[C@@H]2CCCN2C(=O)[C@H]([C@@H](C)CC)NC1=O` [Peptide 66, TPN-RQ(K16A/K17A)] (H-ALCNCNRRIIPHQCWAACGKK-NH2; disulfide 3-14, 5-18) is higher in inhibition at 1 µM: under 20% for the first, 20 to 40% for the second.

“RRIIAHQK-NH2 [Peptide 27, TPN-RQ 7-13(P11A) + K]” and NRIIIPHM-NH2 [Peptide 9, TPN 6–13] cannot be ordered by inhibition at 1 µM: under 20% for the first, under 20% for the second.

First: CC[C@H](C)[C@@H]1NC(=O)[C@H](C)NC(=O)[C@H](CCCNC(=N)N)NC(=O)[C@H](CCCNC(=N)N)NC(=O)[C@H](CC(N)=O)NC(=O)[C@@H]2CSSC[C@@H](C(=O)NCC(=O)N[C@@H](CCCCN)C(=O)N[C@@H](CCCCN)C(N)=O)NC(=O)[C@H](CCCCN)NC(=O)[C@H](CCCCN)NC(=O)[C@H](Cc3c[nH]c4ccccc34)NC(=O)[C@H](CSSC[C@H](NC(=O)[C@H](CC(C)C)NC(=O)[C@H](C)N)C(=O)N[C@@H](CC(N)=O)C(=O)N2)NC(=O)[C@H](CCC(N)=O)NC(=O)[C@H](Cc2c[nH]cn2)NC(=O)[C@@H]2CCCN2C1=O [Peptide 60, TPN-RQ(I9A)] (H-ALCNCNRRAIPHQCWKKCGKK-NH2; disulfide 3-14, 5-18)
Second: RAIIPHQK-NH2 [Peptide 24, TPN-RQ 7-13(R8A) + K]
The inhibition at 1 µM of the first is higher: 40 to 60% for the first, under 20% for the second.

IPHMCWKK-NH2 [Peptide 13, TPN 10–17] and `CC[C@H](C)[C@@H]1NC(=O)[C@H](CCCNC(=N)N)NC(=O)[C@H](CCCNC(=N)N)NC(=O)[C@H](CC(N)=O)NC(=O)[C@@H](NC(=O)[C@@H](N)CC(N)=O)CSSC[C@@H](C(=O)N[C@@H](Cc2c[nH]c3ccccc23)C(=O)N[C@@H](CCCCN)C(=O)N[C@@H](CCCCN)C(N)=O)NC(=O)[C@H](CCC(N)=O)NC(=O)[C@H](Cc2c[nH]cn2)NC(=O)[C@@H]2CCCN2C(=O)[C@H]([C@@H](C)CC)NC1=O` [Peptide 39, TPN-RQ 4–17] (H-NCNRRIIPHQCWKK-NH2; disulfide 2-11) cannot be ordered by inhibition at 1 µM: under 20% for the first, under 20% for the second.

RRIIPHMC-NH2 [Peptide 19, TPN-R 7–14] and “RRAIPHQK-NH2 [Peptide 25, TPN-RQ 7-13(I9A) + K]” cannot be ordered by inhibition at 1 µM: under 20% for the first, under 20% for the second.

“RRIIPHQK-NH2 [Peptide 22, TPN-RQ 7–13 + K]” and `CC[C@H](C)[C@@H]1NC(=O)[C@H](CCCNC(=N)N)NC(=O)[C@H](CC(N)=O)NC(=O)[C@@H]2CSSC[C@@H](C(=O)NCC(=O)N[C@@H](CCCCN)C(=O)N[C@@H](CCCCN)C(N)=O)NC(=O)[C@H](CCCCN)NC(=O)[C@H](CCCCN)NC(=O)[C@H](Cc3c[nH]c4ccccc34)NC(=O)[C@H](CSSC[C@H](NC(=O)[C@H](CC(C)C)NC(=O)[C@H](C)N)C(=O)N[C@@H](CC(N)=O)C(=O)N2)NC(=O)[C@H](CCC(N)=O)NC(=O)[C@H](Cc2c[nH]cn2)NC(=O)[C@@H]2CCCN2C1=O` [Peptide 52, TPN-RQ(Δ8R/ΔI9)] (H-ALCNCNRIPHQCWKKCGKK-NH2; disulfide 3-12, 5-16) cannot be ordered by inhibition at 1 µM: under 20% for the first, under 20% for the second.

For `CC(C)C[C@H](NC(=O)[C@H](C)N)C(=O)N[C@H]1CSSC[C@@H]2NC(=O)[C@H](CCC(N)=O)NC(=O)[C@H](Cc3c[nH]cn3)NC(=O)[C@@H]3CCCN3C(=O)[C@H](CCCNC(=N)N)NC(=O)[C@H](CCCNC(=N)N)NC(=O)[C@H](CC(N)=O)NC(=O)[C@H](CSSC[C@@H](C(=O)NCC(=O)N[C@@H](CCCCN)C(=O)N[C@@H](CCCCN)C(N)=O)NC(=O)[C@H](CCCCN)NC(=O)[C@H](CCCCN)NC(=O)[C@H](Cc3c[nH]c4ccccc34)NC2=O)NC(=O)[C@H](CC(N)=O)NC1=O` [Peptide 53, TPN-RQ(ΔI9/ΔI10)] (H-ALCNCNRRPHQCWKKCGKK-NH2; disulfide 3-12, 5-16), the inhibition at 1 µM was under 20%.
